Our source for the Solubility in menthol values is patent US8663703B2, “Drug microparticles, processes of preparing them and a drug delivery vehicle comprising them” (Teva Pharmaceutical Industries, Ltd., priority 2002, dated 2014).

The data set in a line: Solubility of selected drugs in menthol melt. Type of data set: physicochemical. Here is the method: The following general procedure was repeated with several drugs with menthol carrier.
Menthol (10 grams) was melted on a stirring hot plate with magnetic stirring, then heated to the desired temperature indicated in Table 1. The desired drug was added in small increments (0.1 grams) and stirred to obtain a clear solution. The desired drug was added in increments until no more drug dissolved in the menthol.

The compound `CC[C@H]1OC(=O)[C@H](C)[C@@H](O[C@H]2C[C@@](C)(OC)[C@@H](O)[C@H](C)O2)[C@H](C)[C@@H](O[C@@H]2O[C@H](C)C[C@H](N(C)C)[C@H]2O)[C@](C)(O)C[C@@H](C)CN(C)[C@H](C)[C@@H](O)[C@]1(C)O` [Azithromycin] came in with a Solubility in menthol (menthol melt, 63 °C) of 40.0 % w/w.
Take `CCC(C)n1ncn(-c2ccc(N3CCN(c4ccc(OCC5COC(Cn6cncn6)(c6ccc(Cl)cc6Cl)O5)cc4)CC3)cc2)c1=O` (stereo not shown) [Itraconazole]: the Solubility in menthol runs as follows: (in menthol at 60° C. (text of Example 6)) 1%; (menthol melt, 61 °C) 1.0 % w/w.
`O=C(O)c1ccccc1O` [Salicylic acid] registered a Solubility in menthol (menthol melt, 43 °C) of 16.0 % w/w.
